# Source: US9476099B2 (TRUSTEES OF DARTMOUTH COLLEGE, priority 2012, dated 2016)
# System: NT2/D1-R1 control and DNMT3B knockdown cells
# Experiment: Genome-wide expression analysis with PAM clusters, control and DNMT3B knockdown cells (Tables 8-14)
# Settings: sh-3B + aza, NT2/D1-R1 DNMT3B knockdown, decitabine 10 nM 3 days
smiles,measurement,setting,value
Nc1ncn([C@H]2C[C@H](O)[C@@H](CO)O2)c(=O)n1 [aza],"ACSS2 (NM_0010765) gene expression, Mean",,406.693
same,"ADCK1 (NM_020421) gene expression, Mean",,305.179
same,"ADCY1 (NM_021116) gene expression, Mean",,138.949
same,"AGAP1 (NM_014914) gene expression, Mean",,225.72
same,"AK056312 gene expression, Mean",,471.555
same,"ANKRD9 (NM_152326) gene expression, Mean",,896.077
same,"APEH (NM_001640) gene expression, Mean",,1236.16
same,"APP (NM_201414) gene expression, Mean",,393.758
same,"C1orf115 (NM_024709) gene expression, Mean",,380.885
same,"C2orf34 (NM_024766) gene expression, Mean",,286.591
same,"C7orf47 (NM_145030) gene expression, Mean",,749.147
same,"C16orf35 (NM_0010394) gene expression, Mean",,464.104
same,"CA4 (NM_000717) gene expression, Mean",,1313.05
same,"CACNA2D2 (NM_006030) gene expression, Mean",,398.095
same,"CD24 (NM_013230) gene expression, Mean",,4095.34
same,"CD248 (NM_020404) gene expression, Mean",,166.587
same,"CDC42EP5 (NM_145057) gene expression, Mean",,232.63
same,"CDH3 (NM_001793) gene expression, Mean",,1031.14
same,"CEBPB (NM_005194) gene expression, Mean",,886.982
same,"CHST13 (NM_152889) gene expression, Mean",,184.993
same,"CLASP1 (NM_015282) gene expression, Mean",,448.757
same,"CLIP2 (NM_032421) gene expression, Mean",,216.273
same,"COMMD1 (NM_152516) gene expression, Mean",,327.95
same,"COMMD7 (NM_0010993) gene expression, Mean",,1236.98
same,"CRMP1 (NM_0010148) gene expression, Mean",,628.721
same,"CTNNBIP1 (NM_020248) gene expression, Mean",,181.632
same,"CXCL16 (NM_022059) gene expression, Mean",,276.818
same,"CYP2F1 (NM_000774) gene expression, Mean",,134.435
same,"CYP2S1 (NM_030622) gene expression, Mean",,1003.81
same,"DBC1 (NM_014618) gene expression, Mean",,313.757
same,"DDIT4 (NM_019058) gene expression, Mean",,558.55
same,"DGKQ (NM_001347) gene expression, Mean",,236.075
same,"DLL3 (NM_016941) gene expression, Mean",,150.963
same,"DPYSL3 (NM_001387) gene expression, Mean",,841.778
same,"DYM (NM_017653) gene expression, Mean",,332.811
same,"DYSF (NM_003494) gene expression, Mean",,345.371
same,"EPHA1 (NM_005232) gene expression, Mean",,886.512
same,"EVI5L (NM_145245) gene expression, Mean",,248.688
same,"EVL (NM_016337) gene expression, Mean",,840.767
same,"EXTL3 (NM_001440) gene expression, Mean",,869.111
same,"F11R (NM_016946) gene expression, Mean",,218.843
same,"FAF1 (NM_007051) gene expression, Mean",,266.415
same,"FAM125A (NM_138401) gene expression, Mean",,558.795
same,"FAM127A (NM_0010781) gene expression, Mean",,1016.07
same,"FCGBP (NM_003890) gene expression, Mean",,279.685
same,"FDFT1 (NM_004462) gene expression, Mean",,705.216
same,"FIGNL2 (NM_0010136) gene expression, Mean",,289.159
same,"FLNB (NM_001457) gene expression, Mean",,960.275
same,"FOXN3 (NM_005197) gene expression, Mean",,518.292
same,"GAL (NM_015973) gene expression, Mean",,1768.85
same,"GAS7 (NM_201433) gene expression, Mean",,308.927
same,"GLG1 (NM_012201) gene expression, Mean",,913.909
same,"GRAMD1A (NM_020895) gene expression, Mean",,607.142
same,"GTF3C1 (NM_001520) gene expression, Mean",,626.338
same,"HCFC1R1 (NM_0010020) gene expression, Mean",,798.561
same,"HESX1 (NM_003865) gene expression, Mean",,379.045
same,"HINT2 (NM_032593) gene expression, Mean",,706.883
same,"HIST3H2A (NM_033445) gene expression, Mean",,282.379
same,"HIST4H4 (NM_003541) gene expression, Mean",,314.561
same,"HK1 (NM_033500) gene expression, Mean",,4205.36
same,"IDH1 (NM_005896) gene expression, Mean",,1445.11
same,"IL21R (NM_181078) gene expression, Mean",,161.219
same,"JPH3 (NM_020655) gene expression, Mean",,214.843
same,"KIF1A (NM_004321) gene expression, Mean",,150.02
same,"KIF1B (NM_015074) gene expression, Mean",,393.388
same,"LDB2 (NM_001290) gene expression, Mean",,259.706
same,"LDOC1 (NM_012317) gene expression, Mean",,881.126
same,"LHFPL4 (NM_198560) gene expression, Mean",,515.175
same,"LONP1 (NM_004793) gene expression, Mean",,1192.71
same,"LPCAT3 (NM_005768) gene expression, Mean",,456.787
same,"LRBA (NM_006726) gene expression, Mean",,267.501
same,"LRRC33 (NM_198565) gene expression, Mean",,257.521
same,"MAPK3 (NM_0010400) gene expression, Mean",,447.115
same,"MAPKAP1 (NM_0010066) gene expression, Mean",,274.663
same,"MED30 (NM_080651) gene expression, Mean",,707.11
same,"MID1IP1 (NM_021242) gene expression, Mean",,1496.95
same,"MKRN1 (NM_013446) gene expression, Mean",,3678.37
same,"MSRB2 (NM_012228) gene expression, Mean",,698.39
same,"MYO5C (NM_018728) gene expression, Mean",,203.184
same,"NANOG (NM_024865) gene expression, Mean",,1405.64
same,"NCOR2 (NM_006312) gene expression, Mean",,1205.94
same,"NDUFS4 (NM_002495) gene expression, Mean",,375.498
same,"NFE2L3 (NM_004289) gene expression, Mean",,395.959
same,"NGFRAP1 (NM_206917) gene expression, Mean",,1522.67
same,"NKX3-2 (NM_001189) gene expression, Mean",,358.543
same,"NM_014745 gene expression, Mean",,246.953
same,"NPAS1 (NM_002517) gene expression, Mean",,227.998
same,"NPTX2 (NM_002523) gene expression, Mean",,279.223
same,"ODZ3 (NM_0010804) gene expression, Mean",,220.124
same,"P4HB (NM_000918) gene expression, Mean",,2039.07
same,"PACSIN1 (NM_020804) gene expression, Mean",,268.257
same,"PCDH19 (NM_020766) gene expression, Mean",,187.553
same,"PCK2 (NM_0010180) gene expression, Mean",,126.174
same,"PDZD4 (NM_032512) gene expression, Mean",,283.495
same,"PEMT (NM_148172) gene expression, Mean",,1036.99
same,"PEX14 (NM_004565) gene expression, Mean",,423.992
same,"PGM1 (NM_002633) gene expression, Mean",,3256.12
same,"PHC1 (NM_004426) gene expression, Mean",,2226.1
same,"PIM2 (NM_006875) gene expression, Mean",,2475.84
same,"PITPNC1 (NM_181671) gene expression, Mean",,287.618
same,"PNKP (NM_007254) gene expression, Mean",,570.846
same,"PPAP2A (NM_176895) gene expression, Mean",,646.273
same,"PPP1R1B (NM_181505) gene expression, Mean",,588.401
same,"PQLC3 (NM_152391) gene expression, Mean",,307.634
same,"PRSS8 (NM_002773) gene expression, Mean",,925.924
same,"PSAT1 (NM_021154) gene expression, Mean",,2370.22
same,"PTOV1 (NM_017432) gene expression, Mean",,1244.12
same,"PTPLA (NM_014241) gene expression, Mean",,295.309
same,"RAB3IP (NM_175624) gene expression, Mean",,976.727
same,"RALY (NM_007367) gene expression, Mean",,1409.6
same,"RASIP1 (NM_017805) gene expression, Mean",,236.587
same,"RASL11B (NM_023940) gene expression, Mean",,570.022
same,"RCN2 (NM_002902) gene expression, Mean",,957.657
same,"REEP6 (NM_138393) gene expression, Mean",,581.805
same,"RNF130 (NM_018434) gene expression, Mean",,258.36
same,"ROD1 (NM_005156) gene expression, Mean",,1065.57
same,"RPS6KA2 (NM_0010069) gene expression, Mean",,170.158
same,"SAT1 (NM_002970) gene expression, Mean",,2411.02
same,"SCARB1 (NM_005505) gene expression, Mean",,698.95
same,"SCNN1A (NM_001038) gene expression, Mean",,2384.6
same,"SEMA4B (NM_198925) gene expression, Mean",,455.134
same,"SEMA4D (NM_006378) gene expression, Mean",,404.578
same,"SEMA6B (NM_032108) gene expression, Mean",,327.203
same,"SH2B3 (NM_005475) gene expression, Mean",,459.878
same,"SLC3A2 (NM_0010132) gene expression, Mean",,701.201
same,"SLC8A2 (NM_015063) gene expression, Mean",,221.546
same,"SLC16A10 (NM_018593) gene expression, Mean",,222.7
same,"SLC22A23 (NM_021945) gene expression, Mean",,371.628
same,"SND1 (NM_014390) gene expression, Mean",,806.495
same,"SOX2 (NM_003106) gene expression, Mean",,507.636
same,"SPRY1 (NM_005841) gene expression, Mean",,278.849
same,"SPSB2 (NM_032641) gene expression, Mean",,738.293
same,"SRPX (NM_006307) gene expression, Mean",,221.585
same,"SURF6 (NM_006753) gene expression, Mean",,1956.16
same,"TBCD (NM_005993) gene expression, Mean",,565.581
same,"TCEA2 (NM_198723) gene expression, Mean",,471.659
same,"TCF7L1 (NM_031283) gene expression, Mean",,182.485
same,"TIMP4 (NM_003256) gene expression, Mean",,657.953
same,"TMC6 (NM_007267) gene expression, Mean",,426.897
same,"TMEM145 (NM_173633) gene expression, Mean",,204.077
same,"TPST2 (NM_0010085) gene expression, Mean",,683.535
same,"TRAPPC9 (NM_031466) gene expression, Mean",,145.068
same,"TSPAN9 (NM_006675) gene expression, Mean",,1493.67
same,"TUBB4 (NM_006087) gene expression, Mean",,455.752
same,"UBE2E2 (NM_152653) gene expression, Mean",,521.892
same,"UNC84B (NM_015374) gene expression, Mean",,307.131
same,"VCX2 (NM_016378) gene expression, Mean",,178.538
same,"VCX3A (NM_016379) gene expression, Mean",,405.641
same,"VCX3B (NM_0010018) gene expression, Mean",,466.812
same,"VSNL1 (NM_003385) gene expression, Mean",,462.603
same,"WDR8 (NM_017818) gene expression, Mean",,819.149
same,"XBP1 (NM_0010795) gene expression, Mean",,860.839
same,"XM_373896 gene expression, Mean",,451.855
same,"XM_926633 gene expression, Mean",,6671.37
same,"XM_932919 gene expression, Mean",,278.004
same,"XM_933796 gene expression, Mean",,430.873
same,"XM_943677 gene expression, Mean",,268.065
same,"ZBTB46 (NM_025224) gene expression, Mean",,246.643
same,"ZSWIM4 (NM_023072) gene expression, Mean",,558.806
same,"HIST1H2BK (NM_080593) gene expression, Mean",first HIST1H2BK entry (r906),1161.66
same,"TRPC4AP (NM_015638) gene expression, Mean",first TRPC4AP entry (r880),1093.15
same,"HIST1H2BK (NM_080593) gene expression, Mean",second HIST1H2BK entry (r952),355.319
same,"TRPC4AP (NM_015638) gene expression, Mean",second TRPC4AP entry (r892),1137.74
